# Test results from ChEMBL document CHEMBL5247656, “Discovery of a Potent, Cooperative, and Selective SOS1 PROTAC ZZ151 with In Vivo Antitumor Efficacy in KRAS-Mutant Cancers” (J Med Chem, 2023).
# Calls of active or inactive are those of the source. The calls are words filed in the database; no cut-off is given here.
# Experiments:
# [1] = target: T1, von Hippel-Lindau disease tumor suppressor/Son of sevenless homolog 1 (Homo sapiens) (UniProt Q07889+P40337); assay: PROTAC activity at VHL/SOS1 in human Calu-1 cells harboring KRAS G12C mutant assessed as induction of SOS1 degradation by measuring maximal efficacy at 1 to 2000 nM incubated for 24 hrs by Immunoblot analysis relative to control; type: cell-based; conditions: dose 1-2000 nM
# T1 sequence (P40337 whole entry, looked up, one chain of several, the tested form may be a part): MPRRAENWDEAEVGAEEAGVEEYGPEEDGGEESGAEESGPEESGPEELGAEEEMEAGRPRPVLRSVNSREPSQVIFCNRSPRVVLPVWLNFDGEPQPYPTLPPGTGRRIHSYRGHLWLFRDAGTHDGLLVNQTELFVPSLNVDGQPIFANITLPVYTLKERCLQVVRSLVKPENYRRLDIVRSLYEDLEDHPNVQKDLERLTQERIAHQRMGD
# [2] = target: T2, Son of sevenless homolog 1 (Homo sapiens, UniProt Q07889); assay: Binding affinity to GST-tagged human SOS1 (564 to 1049 residues) expressed in Escherichia coli BL21 (DE3) cells assessed as binary complex formation by measuring dissociation constant incubated for 15 mins by fluorescence polarization-based displacement assay
# T2 sequence (Q07889 whole entry): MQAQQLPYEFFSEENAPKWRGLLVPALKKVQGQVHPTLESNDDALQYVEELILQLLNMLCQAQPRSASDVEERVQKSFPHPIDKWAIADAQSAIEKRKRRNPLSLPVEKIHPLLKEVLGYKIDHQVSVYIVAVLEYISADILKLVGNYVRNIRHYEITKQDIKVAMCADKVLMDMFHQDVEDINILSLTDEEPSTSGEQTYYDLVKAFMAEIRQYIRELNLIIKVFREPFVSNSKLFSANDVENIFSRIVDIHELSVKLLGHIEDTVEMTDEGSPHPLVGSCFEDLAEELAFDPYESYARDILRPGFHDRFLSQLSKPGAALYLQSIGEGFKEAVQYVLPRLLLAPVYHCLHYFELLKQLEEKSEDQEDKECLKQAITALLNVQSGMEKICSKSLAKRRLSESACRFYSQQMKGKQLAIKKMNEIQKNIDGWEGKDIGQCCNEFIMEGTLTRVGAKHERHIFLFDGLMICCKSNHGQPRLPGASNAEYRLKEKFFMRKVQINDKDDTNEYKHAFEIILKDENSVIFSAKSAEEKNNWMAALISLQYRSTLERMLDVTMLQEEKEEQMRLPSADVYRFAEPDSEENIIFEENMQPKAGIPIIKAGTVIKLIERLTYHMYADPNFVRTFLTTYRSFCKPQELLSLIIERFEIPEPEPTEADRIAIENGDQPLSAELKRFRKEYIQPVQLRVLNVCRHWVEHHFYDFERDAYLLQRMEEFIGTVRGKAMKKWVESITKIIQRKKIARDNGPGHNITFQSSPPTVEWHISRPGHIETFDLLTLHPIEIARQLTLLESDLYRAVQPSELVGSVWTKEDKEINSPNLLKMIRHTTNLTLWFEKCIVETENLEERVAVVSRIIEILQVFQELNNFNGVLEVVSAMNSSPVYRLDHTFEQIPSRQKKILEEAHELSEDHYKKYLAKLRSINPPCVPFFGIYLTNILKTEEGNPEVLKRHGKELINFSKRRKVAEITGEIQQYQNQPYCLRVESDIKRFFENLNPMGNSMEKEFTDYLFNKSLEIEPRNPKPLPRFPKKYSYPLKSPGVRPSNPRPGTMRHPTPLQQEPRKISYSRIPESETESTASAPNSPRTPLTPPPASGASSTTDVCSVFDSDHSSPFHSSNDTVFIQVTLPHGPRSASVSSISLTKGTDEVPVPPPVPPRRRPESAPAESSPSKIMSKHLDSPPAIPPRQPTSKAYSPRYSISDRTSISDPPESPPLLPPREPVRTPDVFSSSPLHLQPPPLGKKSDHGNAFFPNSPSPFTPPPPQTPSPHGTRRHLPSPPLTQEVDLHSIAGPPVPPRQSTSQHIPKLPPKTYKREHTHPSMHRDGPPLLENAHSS
# [3] = target: T1, von Hippel-Lindau disease tumor suppressor/Son of sevenless homolog 1 (Homo sapiens); assay: PROTAC activity at VHL/SOS1 in human CAL-62 cells harboring KRAS G12R mutant assessed as induction of SOS1 degradation by measuring maximal efficacy at 1 to 2000 nM incubated for 24 hrs by Immunoblot analysis relative to control; type: cell-based; conditions: dose 1-2000 nM
# [4] = target: T1, von Hippel-Lindau disease tumor suppressor/Son of sevenless homolog 1 (Homo sapiens); assay: PROTAC activity at VHL/SOS1 in human SK-LU-1 cells harboring KRAS G12D mutant assessed as induction of SOS1 degradation by measuring maximal efficacy at 1 to 2000 nM incubated for 24 hrs by Immunoblot analysis relative to control; type: cell-based; conditions: dose 1-2000 nM
# ASPC1 [5] = assay: Downregulation of ZCCHC10 in human ASPC1 cells at 1 uM incubated for 6 hrs by quantitative proteomics analysis; type: functional, cell-based
# [6] = target: T1, von Hippel-Lindau disease tumor suppressor/Son of sevenless homolog 1 (Homo sapiens); assay: PROTAC activity at VHL/SOS1 in human PANC-1 cells harboring KRAS G12D mutant assessed as induction of SOS1 degradation by measuring maximal efficacy at 1 to 2000 nM incubated for 24 hrs by Immunoblot analysis relative to control; type: cell-based; conditions: dose 1-2000 nM
# [7] = target: T1, von Hippel-Lindau disease tumor suppressor/Son of sevenless homolog 1 (Homo sapiens); assay: PROTAC activity at VHL/SOS1 in human Lovo cells harboring KRAS G13D mutant assessed as induction of SOS1 degradation by measuring maximal efficacy at 1 to 2000 nM incubated for 24 hrs by Immunoblot analysis relative to control; type: cell-based; conditions: dose 1-2000 nM
# ASPC1 [8] = assay: Antitumor activity against human ASPC1 cells harboring KRAS G12D mutant xenografted in BALB/c nude mouse assessed as tumor growth inhibition at 10 mg/kg, ip administered once daily for 3 weeks relative to control; type: functional; conditions: ASPC1, 504 h, read-out: TGI
# [9] = target: T1, von Hippel-Lindau disease tumor suppressor/Son of sevenless homolog 1 (Homo sapiens); assay: In vivo PROTAC activity at VHL/SOS1 in human ASPC1 cells harboring KRAS G12D mutant xenografted BALB/c nude mouse assessed as decrease in phosphorylated ERK expression at 10 to 20 mg/kg, ip administered once daily for 3 weeks by immunohistochemistry analysis; type: functional, organism-based; conditions: dose 10-20 mg/kg
# [10] = Toxicity in BALB/c nude mouse xenografted with human SW620 cells harboring KRAS G12V mutant assessed as body weight loss at 10 to 20 mg/kg, ip administered once daily for 2 weeks; type: organism-based, SW-620; conditions: in vivo, 336 h, dose 10-20 mg/kg
# [11] = target: T1, von Hippel-Lindau disease tumor suppressor/Son of sevenless homolog 1 (Homo sapiens); assay: PROTAC activity at VHL/SOS1 in human HCT-116 cells harboring KRAS G13D mutant assessed as induction of SOS1 degradation by measuring maximal efficacy at 1 to 2000 nM incubated for 24 hrs by Immunoblot analysis relative to control; type: cell-based; conditions: dose 1-2000 nM
# [12] = target: von Hippel-Lindau disease tumor suppressor/Son of sevenless homolog 1 (Homo sapiens, UniProt P40337+Q07889, G12R); assay: PROTAC activity at VHL/SOS1 in human CAL-62 cells harboring KRAS G12R mutant assessed as induction of SOS1 degradation incubated for 24 hrs by Immunoblot analysis; type: cell-based
# Chain of von Hippel-Lindau disease tumor suppressor/Son of sevenless homolog 1 (P40337 whole entry, looked up, stated change not applied, one chain of several): as the sequence (P40337 whole entry, looked up, one chain of several, the tested form may be a part) above
# SW-620 = assay: Antiproliferative activity against human SW620 cells harboring KRAS G12V mutant assessed as inhibition of cell proliferation incubated for 7 days by CellTiterGlo-3D proliferation assay; type: functional, cell-based; conditions: SW-620, 168 h
# [13] = target: T1, von Hippel-Lindau disease tumor suppressor/Son of sevenless homolog 1 (Homo sapiens); assay: PROTAC activity at VHL/SOS1 in human UMUC3 cells harboring KRAS G12C mutant assessed as induction of SOS1 degradation by measuring maximal efficacy at 1 to 2000 nM incubated for 24 hrs by Immunoblot analysis relative to control; type: cell-based; conditions: dose 1-2000 nM
# NCI-H460 = assay: Antiproliferative activity against human NCI-H460 cells harboring KRAS […] mutant assessed as inhibition of cell proliferation incubated for 7 days by CellTiterGlo-3D proliferation assay; type: functional, cell-based; conditions: time 7.0 day
structure (smiles),measurement,setting,value
COc1cc2nc(C)nc(N[C@H](C)c3cc(N)cc(C(F)(F)F)c3)c2cc1C1CCN(C(=O)CCCCCC(=O)N[C@H](C(=O)N2C[C@H](O)C[C@H]2C(=O)N[C@@H](C)c2ccc(-c3scnc3C)cc2)C(C)(C)C)CC1,Emax,[1],> 95%
same,Kd,[2],93 nM
same,Emax,[3],> 95%
same,Emax,[4],> 95%
same,Activity,ASPC1 [5],Active
same,Emax,[6],> 95%
same,Emax,[7],> 95%
same,inhibition in vivo at 10 mg/kg,ASPC1 [8],38.8%
same,Activity,[9],Active
same,Activity,[10],Non-Toxic
same,Emax,[11],> 95%
same,EC50,[12],15 nM
same,IC50,SW-620,18.5 nM
same,Emax,[13],> 95%
same,inhibition,NCI-H460,inactive
